This note sets out measurements from patent publication US12410133B2, “Crystalline (r)-5-carbamoylpyridin-3-yl-2-methyl-4-(3-(trifluoromethoxy)benzyl)piperazine-1-carboxylate, compositions and methods of use thereof” (Celgene Corporation, priority 2018, dated 2025).

By solubility is commonly meant the concentration that dissolves in the medium under given conditions.

The structures appear in SMILES notation. In brackets after ≈: the same amount, converted by molar mass. Some results are limits rather than exact numbers.

What all share (type): physicochemical
A short description of series [1]: Interconversion study: competitive slurry of Form A and B. The settings on record: competitive slurry, H2O/PhMe, 1-3 weeks. As to the method: An interconversion study of crystal forms was performed. To understand the thermodynamic stability relationship between Form A and B, competitive slurry experiments were performed at RT and 50° C. in water and toluene. Prior to the study, Form A was used to saturate the corresponding solvent before it was filtered to obtain a near-saturated solution. Equal amounts of Form A and B samples were weighed and then mixed with the prepared near-saturated solution to form a new suspension, which was stirred magnetically (˜1000 rpm) at RT and 50° C.

Series [2] can be described thus: Solubility of Form B in FaSSIF-v2 and FeSSIF-v2 at 37° C. The settings on record: for Final Form: residual solid by XRPD, 2 hr. As to the method:
Solubility of Form B was evaluated at 2 hr for Form B in FaSSIF-v2 and FeSSIF-v2 at 37° C. Approximately 10 to 20 mg of Form B sample was added in 0.8 mL of corresponding bio-relevant medium to form a suspension, followed by shaking at 500 rpm at 37° C. After 2 hr, the supernatants were isolated by centrifugation (7200 rpm for 5 min) followed by filtration through […] PTFE membrane and were tested by HPLC concentration and pH. The residual solids were characterized by XRPD. As summarized in Table 17, Form B converted to a new form (Form C) after solubility evaluation, while the solubility in FaSSIF-v2 and FeSSIF-v2 was measured to be 0.12 and 0.080 mg/mL, respectively.

Series [3] is described as follows: Visual solubility assessment of Form B at room temperature. The settings on record: organic solvent or mixture, thermodynamic from solid. As to the method: Approximately 55 to 90 mg of Form B was added into a 4 mL glass vial. Solvent list in Table 18 was added into each of the vial. These samples were stirred for 3 minutes prior to visual solubility assessment.

For the compound `C[C@@H]1CN(Cc2cccc(OC(F)(F)F)c2)CCN1C(=O)Oc1cncc(C(N)=O)c1` [Form A + B, (R)-5-carbamoylpyridin-3-yl-2-methyl-4-(3-(trifluoromethoxy)benzyl)piperazine-1-carboxylate], the “Final Form” value in series [1] (50° C.) and in series [1] (RT) was “Form A” each time.

As to `C[C@@H]1CN(Cc2cccc(OC(F)(F)F)c2)CCN1C(=O)Oc1cncc(C(N)=O)c1` [Form B, (R)-5-carbamoylpyridin-3-yl-2-methyl-4-(3-(trifluoromethoxy)benzyl)piperazine-1-carboxylate], the solubility at 2 h in series [2] (FaSSIF-v2, thermodynamic from solid, FaSSIF (pH 6.5), final pH 6.6) is 0.12 mg/mL (≈ 0.274 mM); in series [2] (FeSSIF-v2, thermodynamic from solid, FeSSIF (pH 5.8), final pH 5.9) it was 0.08 mg/mL (≈ 0.182 mM). Also, the “Final Form” value in series [2] (FaSSIF (pH 6.5)) and in series [2] (FeSSIF (pH 5.8)) was “Form C” throughout. Moreover, the solubility at 3 min in series [3] (2-Me THF, room temperature) is greater than 810 mg/mL; in series [3] (2-Propanol, room temperature), greater than 365 mg/mL; in series [3] (Acetone, room temperature) it was greater than 430 mg/mL; in series [3] (Acetonitrile, room temperature), greater than 720 mg/mL; in series [3] (Dichloromethane, room temperature) it was greater than 830 mg/mL; in series [3] (EtOH, room temperature), greater than 800 mg/mL. Besides, the solubility at 3 min was greater than 800 mg/mL in series [3] (Ethyl Acetate, room temperature); greater than 730 mg/mL in series [3] (H2O/MeCN 1/3 (v/v) Aw~0.9, room temperature); greater than 780 mg/mL in series [3] (H2O/MeOH 1/3 (v/v) Aw~0.5, room temperature); less than 810 mg/mL in series [3] (Isopropyl Acetate, room temperature); greater than 560 mg/mL in series [3] (Nitromethane, room temperature).
